Key:
[1] = system: T2R02 of Latimeria chalumnae; design: method as in PMID 33355666; details: cited from earlier work
mouse Tas2r105 = molecular target: T1, mouse Tas2r105 (Mus musculus, UniProt Q9JKT4); test: Calcium imaging assay (FLIPR), HEK293T-Gα16gust44 cells transfected with mouse Tas2r105; type: cell-based
T1 construct: expressed in transfected cells; host or cells: HEK293T-Gα16gust44
T1 sequence (Q9JKT4 1-300): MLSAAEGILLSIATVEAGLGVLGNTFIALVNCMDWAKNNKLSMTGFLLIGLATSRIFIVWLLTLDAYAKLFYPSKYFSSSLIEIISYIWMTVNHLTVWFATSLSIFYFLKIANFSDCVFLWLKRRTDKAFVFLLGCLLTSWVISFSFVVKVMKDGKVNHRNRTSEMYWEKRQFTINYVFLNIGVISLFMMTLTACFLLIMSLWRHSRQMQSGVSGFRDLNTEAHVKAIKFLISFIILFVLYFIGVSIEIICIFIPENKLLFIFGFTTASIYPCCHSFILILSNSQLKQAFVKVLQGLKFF
Description: This set of bile acids was chosen because of their commercial availability in high purities, their diversity within the class of bile acids and their previous detection and quantitation in human blood. Stock solutions were prepared in DMSO.
As basal growth medium for the HEK293T-Gα16gust44 cell line[17],[59] served Dulbecco’s modified eagle medium (DMEM) (Thermo Fisher Scientific, Darmstadt, Germany) supplemented with 10 % fetal bovine serum (Sigma-Aldrich, Steinheim, Germany), 2 mM L-glutamine (Sigma-Aldrich, Steinheim, Germany), 100 units/ml penicillin (Sigma Aldrich, Steinheim, Germany) and 100 µg/ml streptomycin (Sigma Aldrich, Steinheim, Germany). Growth conditions were 37 °C, 5 % CO2 and saturated air-humidity[60].
HEK293T-Gα16gust44 cells were seeded on poly-D-lysine (10 µg/ml) coated 96-well plates to reach a confluence of 40-60 % the next day. For transient transfection 150 ng of plasmid DNA containing the receptor of interest and 0.3 µl lipofectamine 2000 (Thermo Fisher Scientific, Darmstadt, Germany) per well were used and transfection took place according to the manual of lipofectamine 2000. […] The empty vector DNA (mock) was transfected as negative control[14],[41].
Cells were loaded using the calcium-sensitive fluorescent dye Fluo-4-AM (Abcam, Cambridge, Great Britain) in the presence of 2.5 mM probenecid (Sigma-Aldrich, Steinheim, Germany) the day after transfection[13],[41]. 1 h after loading, cells were washed with C1 buffer using a BioTek Cell Washer, incubated in the dark for half an hour and washed again. For automated agonist application and measurement of fluorescence changes, a FLIPR^TETRA device (Molecular Devices, San José, United States) was used. Viability of cells was tested by application of 100 nM Somatostatin 14 (Bachem, Bubendorf, Switzerland)[42].
Measured data were negative control corrected by subtracting the signal of the mock-transfected cells and exported to Microsoft Excel using the FLIPR software ScreenWorks 4.2. In Microsoft Excel software, standardization of maximum fluorescence intensities to the basal fluorescence and normalization to the buffer-only control was done to calculate the relative fluorescence changes (ΔF/F).
Initial screening experiments performed in duplicate wells were confirmed by at least one replication and representative traces were selected for display. All dose-response relationships were determined by three independent experiments (biological replicates) performed in duplicates (technical replicates). Threshold concentrations, defined as lowest substance concentrations leading to statistically significant elevated fluorescence changes in receptor-transfected cells compared with empty vector-transfected cells, were determined using SigmaPlot with Student’s t-test to evaluate statistical significance (p < 0.01).

## C[C@H](CCC(=O)NCCS(=O)(=O)O)[C@H]1CC[C@H]2[C@@H]3CC[C@@H]4C[C@H](O)CC[C@]4(C)[C@H]3CC[C@]12C [Taurolithocholic Acid, taurolithocholic acid]
[1]
  Activation of T2R02: activate

## C[C@H](CCC(=O)O)[C@H]1CC[C@H]2[C@@H]3[C@H](O)C[C@@H]4C[C@H](O)CC[C@]4(C)[C@H]3C[C@H](O)[C@]12C [Cholic Acid, cholic acid]
Mouse Tas2r105; Time 0 s
  RLU: 0 RLU
Mouse Tas2r105; Time 2 s
  RLU: 1.777 RLU
Mouse Tas2r105; Time 4 s
  RLU: 7.834 RLU
Mouse Tas2r105; Time 6 s
  RLU: 2.675 RLU
Mouse Tas2r105; Time 8 s
  RLU: 9.829 RLU
Mouse Tas2r105; Time 12 s
  RLU: -3.285 RLU
Mouse Tas2r105; Time 14 s
  RLU: -7.0734 RLU
Mouse Tas2r105; Time 16 s
  RLU: 15 RLU
Mouse Tas2r105; Time 18 s
  RLU: 44.4226 RLU
Mouse Tas2r105; Time 18.781 s
  RLU: 21.6772 RLU
Mouse Tas2r105; Time 20.781 s
  RLU: 9.429 RLU
Mouse Tas2r105; Time 22.781 s
  RLU: 39.5966 RLU
Mouse Tas2r105; Time 24.781 s
  RLU: 10.8272 RLU
Mouse Tas2r105; Time 26.781 s
  RLU: 50.2337 RLU
Mouse Tas2r105; Time 28.781 s
  RLU: 59.2009 RLU
Mouse Tas2r105; Time 30.781 s
  RLU: 49.6279 RLU
Mouse Tas2r105; Time 32.781 s
  RLU: 86.2126 RLU
Mouse Tas2r105; Time 34.781 s
  RLU: 65.8416 RLU
Mouse Tas2r105; Time 36.781 s
  RLU: 100.025 RLU
Mouse Tas2r105; Time 38.781 s
  RLU: 89.1237 RLU
Mouse Tas2r105; Time 40.781 s
  RLU: 115.541 RLU
Mouse Tas2r105; Time 42.781 s
  RLU: 131.095 RLU
Mouse Tas2r105; Time 44.781 s
  RLU: 139.548 RLU
Mouse Tas2r105; Time 46.781 s
  RLU: 164.231 RLU
Mouse Tas2r105; Time 48.781 s
  RLU: 193.51 RLU
Mouse Tas2r105; Time 50.781 s
  RLU: 193.303 RLU
Mouse Tas2r105; Time 52.781 s
  RLU: 217.91 RLU
Mouse Tas2r105; Time 54.781 s
  RLU: 257.63 RLU
Mouse Tas2r105; Time 56.781 s
  RLU: 273.677 RLU
Mouse Tas2r105; Time 58.781 s
  RLU: 284.724 RLU
Mouse Tas2r105; Time 60.781 s
  RLU: 322.244 RLU
Mouse Tas2r105; Time 62.781 s
  RLU: 314.427 RLU
Mouse Tas2r105; Time 64.781 s
  RLU: 342.91 RLU
Mouse Tas2r105; Time 66.781 s
  RLU: 375.793 RLU
Mouse Tas2r105; Time 68.781 s
  RLU: 398.01 RLU
Mouse Tas2r105; Time 70.781 s
  RLU: 424.457 RLU
Mouse Tas2r105; Time 72.781 s
  RLU: 449.971 RLU
Mouse Tas2r105; Time 74.781 s
  RLU: 470.44 RLU
Mouse Tas2r105; Time 76.781 s
  RLU: 487.87 RLU
Mouse Tas2r105; Time 78.781 s
  RLU: 480.774 RLU
Mouse Tas2r105; Time 80.781 s
  RLU: 513.812 RLU
Mouse Tas2r105; Time 82.781 s
  RLU: 513.576 RLU
Mouse Tas2r105; Time 84.781 s
  RLU: 531.991 RLU
Mouse Tas2r105; Time 86.781 s
  RLU: 549.947 RLU
Mouse Tas2r105; Time 88.781 s
  RLU: 553.294 RLU
Mouse Tas2r105; Time 90.781 s
  RLU: 575.612 RLU
Mouse Tas2r105; Time 92.781 s
  RLU: 557.955 RLU
Mouse Tas2r105; Time 94.781 s
  RLU: 575.485 RLU
Mouse Tas2r105; Time 96.781 s
  RLU: 548.118 RLU
Mouse Tas2r105; Time 98.781 s
  RLU: 585.897 RLU
Mouse Tas2r105; Time 100.781 s
  RLU: 576.152 RLU
Mouse Tas2r105; Time 102.781 s
  RLU: 586.681 RLU
Mouse Tas2r105; Time 104.781 s
  RLU: 569.701 RLU
Mouse Tas2r105; Time 106.781 s
  RLU: 551.409 RLU
Mouse Tas2r105; Time 108.781 s
  RLU: 564.279 RLU
Mouse Tas2r105; Time 110.781 s
  RLU: 542.028 RLU
Mouse Tas2r105; Time 112.781 s
  RLU: 544.652 RLU
Mouse Tas2r105; Time 114.781 s
  RLU: 548.979 RLU
Mouse Tas2r105; Time 116.781 s
  RLU: 550.607 RLU
Mouse Tas2r105; Time 118.781 s
  RLU: 555.391 RLU
Mouse Tas2r105; Time 120.781 s
  RLU: 575.811 RLU
Mouse Tas2r105; Time 122.781 s
  RLU: 538.707 RLU
Mouse Tas2r105; Time 124.781 s
  RLU: 581.753 RLU
Mouse Tas2r105; Time 126.781 s
  RLU: 520.313 RLU
Mouse Tas2r105; Time 128.781 s
  RLU: 519.484 RLU
Mouse Tas2r105; Time 130.781 s
  RLU: 535.938 RLU
Mouse Tas2r105; Time 132.781 s
  RLU: 507.19 RLU
Mouse Tas2r105; Time 134.781 s
  RLU: 533.269 RLU
Mouse Tas2r105; Time 136.781 s
  RLU: 500.116 RLU
Mouse Tas2r105; Time 137.578 s
  RLU: 523.788 RLU
Mouse Tas2r105; Time 143.578 s
  RLU: 484.404 RLU
Mouse Tas2r105; Time 149.578 s
  RLU: 476.256 RLU
Mouse Tas2r105; Time 155.578 s
  RLU: 501.067 RLU
Mouse Tas2r105; Time 161.578 s
  RLU: 504.009 RLU
Mouse Tas2r105; Time 167.578 s
  RLU: 489.395 RLU
Mouse Tas2r105; Time 173.578 s
  RLU: 450.925 RLU
Mouse Tas2r105; Time 179.578 s
  RLU: 464.442 RLU
Mouse Tas2r105; Time 185.578 s
  RLU: 417.045 RLU
Mouse Tas2r105; Time 191.578 s
  RLU: 421.394 RLU
Mouse Tas2r105; Time 197.578 s
  RLU: 391.24 RLU
Mouse Tas2r105; Time 203.578 s
  RLU: 344.694 RLU
Mouse Tas2r105; Time 209.578 s
  RLU: 358.293 RLU
Mouse Tas2r105; Time 215.578 s
  RLU: 343.137 RLU
Mouse Tas2r105; Time 221.578 s
  RLU: 329.589 RLU
Mouse Tas2r105; Time 227.578 s
  RLU: 339.83 RLU
Mouse Tas2r105; Time 233.578 s
  RLU: 325.692 RLU
Mouse Tas2r105; Time 239.578 s
  RLU: 315.743 RLU
Mouse Tas2r105; Time 245.578 s
  RLU: 313.71 RLU
Mouse Tas2r105; Time 293.578 s
  RLU: 197.324 RLU
Mouse Tas2r105; Time 299.578 s
  RLU: 152.865 RLU
Mouse Tas2r105; Time 305.578 s
  RLU: 156.643 RLU
Mouse Tas2r105; Time 311.578 s
  RLU: 134.046 RLU
Mouse Tas2r105; Time 317.578 s
  RLU: 124.601 RLU
Mouse Tas2r105; Time 323.578 s
  RLU: 131.88 RLU
Mouse Tas2r105; Time 329.578 s
  RLU: 133.734 RLU
Mouse Tas2r105; Time 335.578 s
  RLU: 174.038 RLU
Mouse Tas2r105; Time 341.578 s
  RLU: 165.309 RLU
Mouse Tas2r105; Time 347.578 s
  RLU: 173.556 RLU
Mouse Tas2r105; Time 353.578 s
  RLU: 191.675 RLU
Mouse Tas2r105; Time 359.578 s
  RLU: 226.638 RLU
Mouse Tas2r105; p < 0.01 vs empty vector
  Activation threshold concentration Tas2r105: 300 µM

## C[C@H](CCC(=O)O)[C@H]1CC[C@H]2[C@@H]3[C@H](O)C[C@@H]4C[C@H](O)CC[C@]4(C)[C@H]3CC[C@]12C [Chenodeoxycholic Acid, chenodeoxycholic acid]
[1]
  Activation of T2R02: activate

## C[C@H](CCC(=O)NCCS(=O)(=O)O)[C@H]1CC[C@H]2[C@@H]3[C@H](O)C[C@@H]4C[C@H](O)CC[C@]4(C)[C@H]3C[C@H](O)[C@]12C [Taurocholic Acid, taurocholic acid]
Mouse Tas2r105; screening
  Receptor response Tas2r105: lack of taurocholic acid responsiveness

From PMC10247784, “Physiological activation of human and mouse bitter taste receptors by bile acids” (Communications Biology, 2023)
